Assay results: patent US7157487B2, “Vla-4 inhibitors” (Daiichi Pharmaceutical Co., Ltd., priority 2000, dated 2007)

What was measured:
[1] = target: T1, integrins haα4 and β1 (VLA-4) expressed on CHO cells (Homo sapiens, UniProt P05556+P13612); experiment: In vitro Evaluation Test (1): binding of Eu3+-hVCAM-1 D1D7-IgG to CHO cells expressing integrins α4 and β1; conditions: inhibition of Eu3+-hVCAM-1 D1D7-IgG binding to CHO cells expressing α4β1; Ki calculated from IC50
T1 construct: expressed in transfected cells; host or cells: CHO cells
T1 sequence (P13612 34-1032): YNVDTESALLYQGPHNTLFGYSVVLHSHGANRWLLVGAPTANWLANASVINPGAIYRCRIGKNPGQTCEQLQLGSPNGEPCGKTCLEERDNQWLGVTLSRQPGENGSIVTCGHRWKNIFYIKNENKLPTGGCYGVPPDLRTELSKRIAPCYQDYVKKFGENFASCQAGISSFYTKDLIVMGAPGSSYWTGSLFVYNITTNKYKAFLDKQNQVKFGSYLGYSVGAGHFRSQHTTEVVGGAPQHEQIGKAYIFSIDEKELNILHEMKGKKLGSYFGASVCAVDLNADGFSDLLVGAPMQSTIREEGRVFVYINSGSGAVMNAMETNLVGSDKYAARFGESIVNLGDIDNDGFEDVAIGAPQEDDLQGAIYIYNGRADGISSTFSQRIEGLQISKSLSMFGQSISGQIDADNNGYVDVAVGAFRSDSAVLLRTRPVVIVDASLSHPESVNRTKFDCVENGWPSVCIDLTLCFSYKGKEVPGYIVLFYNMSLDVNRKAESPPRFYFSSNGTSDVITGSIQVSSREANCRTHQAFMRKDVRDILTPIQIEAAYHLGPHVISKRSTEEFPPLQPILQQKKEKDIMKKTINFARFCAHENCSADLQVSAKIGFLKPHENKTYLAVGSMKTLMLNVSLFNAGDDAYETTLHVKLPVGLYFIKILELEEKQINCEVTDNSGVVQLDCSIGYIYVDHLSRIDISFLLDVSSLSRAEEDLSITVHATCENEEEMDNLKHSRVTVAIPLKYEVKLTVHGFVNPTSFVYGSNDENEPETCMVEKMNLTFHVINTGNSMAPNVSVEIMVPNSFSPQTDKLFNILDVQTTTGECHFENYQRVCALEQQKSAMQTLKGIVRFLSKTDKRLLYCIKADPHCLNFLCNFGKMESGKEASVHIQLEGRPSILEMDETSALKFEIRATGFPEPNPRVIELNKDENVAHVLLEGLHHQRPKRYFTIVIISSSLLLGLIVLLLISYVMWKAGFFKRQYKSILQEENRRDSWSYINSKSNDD
T1 sequence (P05556 21-798): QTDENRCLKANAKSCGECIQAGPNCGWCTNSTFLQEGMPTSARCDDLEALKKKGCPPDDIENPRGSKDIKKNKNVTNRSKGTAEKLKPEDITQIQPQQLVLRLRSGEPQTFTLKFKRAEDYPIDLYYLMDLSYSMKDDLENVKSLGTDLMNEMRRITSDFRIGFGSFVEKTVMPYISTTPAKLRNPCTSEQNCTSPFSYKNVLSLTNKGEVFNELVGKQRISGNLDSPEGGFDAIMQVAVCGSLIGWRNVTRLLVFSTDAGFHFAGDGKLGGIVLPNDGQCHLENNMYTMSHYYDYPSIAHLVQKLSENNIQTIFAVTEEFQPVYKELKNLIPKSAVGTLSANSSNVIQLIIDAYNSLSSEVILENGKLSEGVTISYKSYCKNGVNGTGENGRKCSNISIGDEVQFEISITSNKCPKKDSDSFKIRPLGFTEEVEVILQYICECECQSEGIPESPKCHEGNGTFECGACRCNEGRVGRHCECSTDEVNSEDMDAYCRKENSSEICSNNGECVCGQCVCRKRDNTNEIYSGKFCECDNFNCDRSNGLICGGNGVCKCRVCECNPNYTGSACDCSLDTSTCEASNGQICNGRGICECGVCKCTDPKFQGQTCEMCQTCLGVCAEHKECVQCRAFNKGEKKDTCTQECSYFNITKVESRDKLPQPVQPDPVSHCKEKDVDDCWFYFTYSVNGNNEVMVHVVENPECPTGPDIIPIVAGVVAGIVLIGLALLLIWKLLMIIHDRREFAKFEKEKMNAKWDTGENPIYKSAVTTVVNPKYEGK
In short: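 CHO cells transduced with human α4 and β1 were grown for 2 days. They were incubated 1 h at room temperature with Eu3+-hVCAM-1 D1D7-IgG (diluted to 2 nM before addition) and compound, with or without 6% HSA, in HEPES pH 7.5 containing Ca2+, Mg2+ and 4 mM Mn2+. Time-resolved fluorescence gave IC50; Ki used a Scatchard-derived Kd (0.06–20 nM).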

[2] = Evaluation of oral bioavailability by mouse bioassay; format: in vivo; conditions: 10 mg/kg oral, female Balb/C mice, serum 15 minutes after administration, read-out: Blood level
Procedure: A test compound was suspended or dissolved in a proper administration medium to give a concentration of 1 mg/ml. To 7 to 9 week old female Balb/C mice, 10 mg/kg of the resulting suspension or solution was orally administered. Fifteen minutes after the administration, blood was collected from the postcava under anesthesia with ether and the serum was separated from it. The concentration of each test compound was determined by estimating the serum level from a calibration curve obtained with VCAM-1/VLA-4 inhibitory activity as an index or measuring the concentration by using LC/MS/MS.

Compound | Ki [1] | concentration at 15 min [2]
Cn1cc(C(=O)Nc2cc(Cl)c(CC(=O)N3C[C@@H](F)C[C@H]3CO[C@H]3CC[C@H](C(=O)O)CC3)cc2Cl)c2ccccc21 [Example 72, trans-4-(1-(2,5-Dichloro-4-((1-methyl-1H-3-indolylcarbonyl)amino)phenylacetyl)-(4S)-fluoro-(2S)-pyrrolidinylmethoxy)cyclohexanecarboxylic acid] | 4.4 nM | 1880 ng/mL
Cn1cc(C(=O)Nc2cc(F)c(CC(=O)N3C[C@@H](F)C[C@H]3CO[C@H]3CC[C@H](C(=O)O)CC3)cc2Cl)c2cc(F)ccc21 [Example 74, trans-4-(1-((5-Chloro-2-fluoro-4-(((5-fluoro-1-methyl-3-indolyl)carbonyl)amino)phenyl)acetyl)-(4S)-fluoro-(2S)-pyrrolidinylmethoxy)cyclohexanecarboxylic acid] | 7.7 nM | 14100 ng/mL
O=C(Nc1ccc(CC(=O)N2C[C@@H](F)C[C@H]2CO[C@H]2CC[C@H](C(=O)O)CC2)cc1Br)c1nccc2ccccc12 [Example 79, trans-4-(1-((3-Bromo-4-((1-isoquinolinylcarbonyl)amino)phenyl)acetyl)-(4S)-fluoro-(2S)-pyrrolidinylmethoxy)cyclohexanecarboxylic acid] | 4.5 nM | 9370 ng/mL
O=C(Nc1ccc(CC(=O)N2C[C@@H](F)C[C@H]2CO[C@H]2CC[C@H](C(=O)O)CC2)cc1Cl)c1nsc2ccccc12 [Example 83, trans-4-(1-(3-Chloro-4-((3-benzo(d)isothiazolylcarbonyl)amino)phenylacetyl)-(4S)-fluoro-(2S)-pyrrolidinylmethoxy)cyclohexanecarboxylic acid] | 1.9 nM | 1540 ng/mL
Cn1nc(C(=O)Nc2cc(F)c(CC(=O)N3C[C@@H](F)C[C@H]3CO[C@H]3CC[C@H](C(=O)O)CC3)cc2Cl)c2ccccc21 [Example 87, trans-4-(1-((5-Chloro-2-fluoro-4-((1-methyl-3-indazolylcarbonyl)amino)phenyl)acetyl)-(4S)-fluoro-(2S)-pyrrolidinylmethoxy)cyclohexanecarboxylic acid] | 9.1 nM | 15100 ng/mL
Cn1nc(C(=O)Nc2ccc(CC(=O)N3C[C@@H](F)C[C@H]3CO[C@H]3CC[C@H](C(=O)O)CC3)cc2Cl)c2ccccc21 [Example 89, trans-4-(1-((3-Chloro-4-((1-methyl-3-indazolylcarbonyl)amino)phenyl)acetyl)-(4S)-fluoro-(2S)-pyrrolidinylmethoxy)cyclohexanecarboxylic acid] | 3.6 nM | 10900 ng/mL
O=C(Nc1cc(F)c(CC(=O)N2C[C@@H](F)C[C@H]2CO[C@H]2CC[C@H](C(=O)O)CC2)cc1Cl)N1CCc2ccccc21 [Example 91, trans-4-(1-(5-Chloro-2-fluoro-4-(1-(indolinyl)carbonylamino)phenylacetyl)-(4S)-fluoro-(2S)-pyrrolidinylmethoxy)cyclohexanecarboxylic acid] | 2 nM | 2960 ng/mL
O=C(Nc1ccc(CC(=O)N2C[C@@H](F)C[C@H]2CO[C@H]2CC[C@H](C(=O)O)CC2)cc1Cl)N1CCc2ccc(F)cc21 [Example 92] | 2.7 nM | 1990 ng/mL
Cn1cc(-c2nc3ccc(CC(=O)N4C[C@@H](F)C[C@H]4CO[C@H]4CC[C@H](C(=O)O)CC4)c(F)c3o2)c2ccccc21 [Example 98, trans-4-(1-((7-Fluoro-2-(1-methyl-3-indolyl)-6-benzoxazolyl)acetyl)-(4S)-fluoro-(2S)-pyrrolidinylmethoxy)cyclohexanecarboxylic acid] | 3.6 nM | 2210 ng/mL
Cn1cc(-c2nc3ccc(CC(=O)N4C[C@@H](F)C[C@H]4CO[C@H]4CC[C@H](C(=O)O)CC4)cc3o2)c2cc(F)ccc21 [Example 100, trans-4-(1-((2-(5-Fluoro-1-methyl-3-indolyl)-6-benzoxazolyl)acetyl)-(4S)-fluoro-(2S)-pyrrolidinylmethoxy)cyclohexanecarboxylic acid] | 5.5 nM | 533 ng/mL
CO[C@@H]1C[C@@H](CO[C@H]2CC[C@H](C(=O)O)CC2)N(C(=O)Cc2cc(Cl)c(NC(=O)c3cn(C)c4ccccc34)cc2F)C1 [Example 115, trans4-(1-((5-chloro-2-fluoro-4-(1-methyl-3-indolylcarbonylamino)phenyl)acetyl)-(4R)-methoxy-(2S)-pyrrolidinylmethoxy)cyclohexanecarboxylic acid] | 30 nM | 888 ng/mL
CO[C@H]1C[C@@H](CO[C@H]2CC[C@H](C(=O)O)CC2)N(C(=O)Cc2cc(Cl)c(NC(=O)c3cn(C)c4ccccc34)cc2F)C1 [Example 116, trans-4-(1-((5-Chloro-2-fluoro-4-(1-methyl-3-indolylcarbonylamino)phenyl)acetyl)-(4S)-methoxy-(2S)-pyrrolidinylmethoxy)cyclohexanecarboxylic acid] | 2.5 nM | 9400 ng/mL
C=CCO[C@H]1C[C@@H](CO[C@H]2CC[C@H](C(=O)O)CC2)N(C(=O)Cc2cc(Cl)c(NC(=O)c3cn(C)c4ccccc34)cc2F)C1 [Example 117, trans-4-((4S)-Allyloxy-1-((5-chloro-2-fluoro-4-(1-methyl-3-indolylcarbonylamino)phenyl)acetyl)-(2S)-pyrrolidinylmethoxy)cyclohexanecarboxylic acid] | 5.1 nM | 2930 ng/mL
CCCO[C@H]1C[C@@H](CO[C@H]2CC[C@H](C(=O)O)CC2)N(C(=O)Cc2cc(Cl)c(NC(=O)c3cn(C)c4ccccc34)cc2F)C1 [Example 118, trans-4-(1-((5-Chloro-2-fluoro-4-(1-methyl-3-indolylcarbonylamino)phenyl)acetyl)-(4S)-propoxy-(2S)-pyrrolidinylmethoxy)cyclohexanecarboxylic acid] | 6.9 nM | 5730 ng/mL
CO[C@H]1C[C@@H](CO[C@H]2CC[C@H](C(=O)O)CC2)N(C(=O)Cc2cc(Cl)c(NC(=O)c3nn(C)c4ccccc34)cc2F)C1 [Example 121, trans-4-(1-((5-Chloro-2-fluoro-4-(1-methyl-3-indazolylcarbonylamino)phenyl)acetyl)-(4S)-methoxy-(2S)-pyrrolidinylmethoxy)cyclohexanecarboxylic acid] | 3.9 nM | 4410 ng/mL
Cc1ccccc1Nc1nc2ccc(CC(=O)N3C[C@@H](Sc4ccccc4)C[C@H]3CO[C@H]3CC[C@H](C(=O)O)CC3)cc2o1 [Example 123] | 5.8 nM | 705 ng/mL
CS[C@H]1C[C@@H](CO[C@H]2CC[C@H](C(=O)O)CC2)N(C(=O)Cc2cc(Cl)c(NC(=O)c3cn(C)c4ccccc34)cc2F)C1 [Example 125, trans-4-(1-((5-Chloro-2-fluoro-4-((1-methyl-3-indolylcarbonyl)amino)phenyl)acetyl)-(4S)-methylthio-(2S)-pyrrolidinylmethoxy)cyclohexanecarboxylic acid] | 6.5 nM | 2570 ng/mL
Cn1cc(C(=O)Nc2cc(F)c(CC(=O)N3CCC[C@H]3CO[C@H]3CC[C@H](C(=O)O)CC3)cc2Cl)c2ccccc21 [Example 130, trans-4-(1-((5-Chloro-2-fluoro-4-(1-methyl-3-indolylcarbonylamino)phenyl)acetyl)-(2S)-pyrrolidinylmethoxy)-1-cyclohexanecarboxylic acid] | 8.8 nM | 3590 ng/mL
C[C@H]1CC[C@@H](CO[C@H]2CC[C@H](C(=O)O)CC2)N1C(=O)Cc1cc(Cl)c(NC(=O)c2cn(C)c3ccccc23)cc1F [Example 136, trans-4-(1-((5-chloro-2-fluoro-4-((1-methyl-3-indolyl)carbonylamino)phenyl)acetyl)-(5S)-methyl-(2S)-pyrrolidinylmethoxy)cyclohexanecarboxylic acid] | 5.4 nM | 2500 ng/mL
COC[C@H]1C[C@@H](CO[C@H]2CC[C@H](C(=O)O)CC2)N(C(=O)Cc2cc(Cl)c(NC(=O)c3cn(C)c4ccccc34)cc2F)C1 [Example 138, trans-4-(1-(5-Chloro-2-fluoro-4-((1-methyl-1H-3-indolylcarbonyl)amino)phenylacetyl)-(4S)-methoxymethyl-(2S)-pyrrolidinylmethoxy)cyclohexanecarboxylic acid] | 15 nM | 1260 ng/mL
COC[C@H]1C[C@@H](CO[C@H]2CC[C@H](C(=O)O)CC2)N(C(=O)Cc2cc(Cl)c(NC(=O)c3nn(C)c4ccccc34)cc2F)C1 [Example 139, trans-4-(1-(5-Chloro-2-fluoro-4-((1-methyl-1H-indazole-3-indazolylcarbonyl)amino)phenylacetyl)-(4S)-methoxymethyl-(2S)-pyrrolidinylmethoxy)cyclohexanecarboxylic acid] | 9.1 nM | 2430 ng/mL
COC[C@@H]1CC[C@@H](CO[C@H]2CC[C@H](C(=O)O)CC2)N1C(=O)Cc1cc(Cl)c(NC(=O)c2cn(C)c3ccccc23)cc1F [Example 141, trans-4-((1-(5-Chloro-2-fluoro-4-((1-methyl-3-indolyl)carbonylamino)phenyl)acetyl)-(5S)-methoxymethyl-(2S)-pyrrolidinylmethoxy)cyclohexanecarboxylic acid] | 21 nM | 8820 ng/mL
CO[C@@H]1CN(C(=O)Cc2ccc3nc(Nc4ccccc4C)oc3c2)C[C@@H]1Oc1ccc(C(=O)O)cc1 [Example 155, 4-((4R)-Methoxy-1-((2-(2-methylphenylamino)-6-benzoxazolyl)acetyl)-(3S)-pyrrolidinyloxy)benzoic acid] | 20 nM | 571 ng/mL
